This note sets out measurements from US20150335025A1 (priority 2014, published 2015).

This test relates to Bacillus anthracis Spores. In kind it is cell-based, Bacillus anthracis (Ames strain).

Consider `O=S(=O)([O-])OOS(=O)(=O)[O-].[Na+].[Na+]` [Klozur ™, sodium persulfate], for which the “Decontamination effectiveness against B. anthracis, topsoil compared with AZTD” value is reported as “not significantly different” and the “Inactivation of B. anthracis” value is reported as “complete inactivation”.
